Results reported in publication PMC6270845, “Fluorescent Probes for Insect Ryanodine Receptors: Candidate Anthranilic Diamides” (Molecules, 2014).
Values joined by “and” are separate entries in the source; they are usually repeats but may differ in a detail not shown here. Identical values can stand only once. Like-named read-outs stand apart in the source and are kept apart here. Values belong to the compound of their own block, whether it stands above or below them.

Assays:
Plutella larvae = assay: Insecticidal activity, leaf-dip bioassay; details: fourth instar larvae, cabbage leaf-dip, mortality after 96 h
[1] = target: T1, house fly thoracic muscle RyR (Musca domestica, UniProt A0A9J7DBA3); assay: Stimulation of [3H]Ry binding in Musca RyR radioligand assay; details: Musca muscle membrane, 1 nM [3H]Ry, 2 h at 37 °C
Protocol: (§1) [^3H]Ry (95 Ci/mmol, Perkin-Elmer Life Sciences, Boston, MA, USA) and [^3H]Chlo (78 Ci/mmol) were used in RyR binding assays with house fly thorax muscle membranes as reported earlier. Adults emerging from pupae obtained from Benzon Research (Carlisle, PA, USA) were used to collect the thoraces for membrane preparation. The following two buffers were used: (A) 10 μM phenylmethanesulfonyl fluoride, 0.8% bovine serum albumin, and 303 mM sucrose in 20 mM Tris-maleate, pH 7.0; and (B) 0.8 mM CaCl2, 2 mM ATP·Mg^2+ salt, and 1.5 M KCl in 10 mM Hepes, pH 7.4. Incubation mixtures were prepared by sequential addition to culture tubes of 200 μL of buffer B, 200 μL of buffer A containing thorax muscle membranes (200 μg protein) and then ethanol (5 μL) containing [^3H]Ry or [^3H]Chlo to give a final radioligand concentration of 1 nM. Finally, test compounds were added in 5 μL ethanol to give the specified concentrations of Fluor-Cl and Fluor-CN. Following incubation for 2 h at 37 °C, the mixtures were filtered through GF/B filters (Whatman, presoaked in ice-cold washing buffer) immediately after dilution with 5 mL of ice-cold washing buffer (150 mM KCl, 10 mM Hepes, pH 7.4). Each assay tube was further rinsed twice with 5 mL of ice-cold washing buffer, and the rinses were passed through the same filter. […] Binding data were analyzed and plotted by GraphPad Prism 5.0. […]

[2] = target: T1, house fly thoracic muscle RyR; assay: Inhibition of [3H]Chlo binding in Musca RyR radioligand assay; details: Musca muscle membrane, 1 nM [3H]Chlo, 2 h at 37 °C
Protocol: as §1

[3] = target: T1, house fly thoracic muscle RyR; set-up: method as in PMID 22856329; details: read-out: Stimulation of [3H]Ry binding (EC50), reported value; cited from earlier work
[4] = target: T1, house fly thoracic muscle RyR; set-up: method as in PMID 22856329; details: read-out: Inhibition of [3H]Chlo binding (IC50), reported value; cited from earlier work

Structure (SMILES): Cc1cc(C(F)(C(F)(F)F)C(F)(F)F)ccc1NC(=O)c1cccc(I)c1C(=O)NC(C)(C)CS(C)(=O)=O [Flu, flubendiamide, reference compound]
LC50 (95%CL) (Plutella larvae): 0.056(0.037–0.068) ppm

Structure (SMILES): C#CCNC(=O)c1cc(C#N)cc(C)c1NC(=O)c1cc(Br)nn1-c1ncccc1Cl [Prop-CN, 3-bromo-N-(4-cyano-2-methyl-6-(prop 2-ynylcarbamoyl)phenyl)-1-(3-chloropyridin-2-yl)-1H-pyrazole-5-carboxamide]
LC50 (95%CL) (Plutella larvae): 0.34(0.24–0.43) ppm

Structure (SMILES): C#CCNC(=O)c1cc(Cl)cc(C)c1NC(=O)c1cc(Br)nn1-c1ncccc1Cl [Prop-Cl, 3-Bromo-N-(4-chloro-2-methyl-6-(prop-2-ynylcarbamoyl)phenyl)-1-(3-chloropyridin-2-yl)-1H-pyrazole-5-carboxamide]
LC50 (95%CL) (Plutella larvae): 0.080(0.024–0.152) ppm

EC50 [1]: 0.005 to 0.007 µM and 0.005 µM | IC50 [2]: 0.034 to 0.039 µM and 0.039 µM
Structure (SMILES): Cc1cc(C#N)cc(C(=O)NCc2cn(-c3cc4ccc(O)cc4oc3=O)nn2)c1NC(=O)c1cc(Br)nn1-c1ncccc1Cl [Fluor-CN, 3-Bromo-1-(3-chloropyridin-2-yl)-N-(4-cyano-2-((1-(7-hydroxy-2-oxo-2H-chromen-3-yl)-1H-1,2,3-triazol-4-yl)methylcarbamoyl)-6-methylphenyl)-1H-pyrazole-5-carboxamide]
LC50 (95%CL) (Plutella larvae): 7.57(4.57–11.77) ppm

Structure (SMILES): CNC(=O)c1cc(Cl)cc(C)c1NC(=O)c1cc(Br)nn1-c1ncccc1Cl [Chlo, chlorantraniliprole]
EC50 [3]: 0.003 to 0.015 µM | IC50 [4]: 0.006 to 0.014 µM | LC50 (95%CL) (Plutella larvae): 0.033(0.006–0.059) ppm

Structure (SMILES): CNC(=O)c1cc(C#N)cc(C)c1NC(=O)c1cc(Br)nn1-c1ncccc1Cl [Cyan, cyantraniliprole]
EC50 [3]: 0.003 to 0.015 µM | IC50 [4]: 0.006 to 0.014 µM | LC50 (95%CL) (Plutella larvae): 0.061(0.035–0.086) ppm
